Measured values published in US9169254B2, “Spiroimidazolone derivative” (Chugai Seiyaku Kabushiki Kaisha, priority 2009, dated 2015).
Read-outs that look alike come from different tables or passages of the source. Values belong to the molecule of their own block, whether it stands above or below them.

Experiments:
human PTH1 receptor = biological target: T1, human PTH1 receptor (Homo sapiens, UniProt Q03431); assay: In vitro cAMP signal activity in HKRK-B7 cells (LLC-PK1 cells overexpressing the human PTH1 receptor); type: cell-based
T1 sequence (Q03431 27-593): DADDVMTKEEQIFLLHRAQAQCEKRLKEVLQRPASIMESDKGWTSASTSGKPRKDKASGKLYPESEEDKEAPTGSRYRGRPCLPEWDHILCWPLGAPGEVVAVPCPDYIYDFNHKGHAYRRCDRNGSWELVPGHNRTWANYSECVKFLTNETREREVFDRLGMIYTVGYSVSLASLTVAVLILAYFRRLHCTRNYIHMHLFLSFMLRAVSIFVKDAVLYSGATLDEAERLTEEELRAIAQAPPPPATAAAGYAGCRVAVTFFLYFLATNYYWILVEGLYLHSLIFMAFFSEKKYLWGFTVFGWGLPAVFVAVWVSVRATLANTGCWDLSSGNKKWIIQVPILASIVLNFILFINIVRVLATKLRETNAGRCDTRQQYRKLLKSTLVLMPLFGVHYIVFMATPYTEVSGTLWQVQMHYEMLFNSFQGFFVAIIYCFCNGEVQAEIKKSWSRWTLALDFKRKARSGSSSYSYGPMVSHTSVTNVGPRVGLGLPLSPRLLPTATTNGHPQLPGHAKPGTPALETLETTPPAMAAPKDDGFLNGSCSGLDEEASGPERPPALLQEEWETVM

[1] = subcutaneous administration, cited from earlier work
[2] = subcutaneous administration, cited from earlier work; remark: listed apart in the source
[3] = HKRK-B7 cells, compound at 1×10^−3 M, cAMP produced as percentage of that produced by hPTH(1-34) at 100 nM

cAMP production activity (%) (human PTH1 receptor; [3]): 72%
Molecule: Cc1cc2ccc1CCS(=O)(=O)N1CCC3(CC1)N=C(NC3=O)c1cc(cc(C(F)(F)F)c1)OCCCCCOCCNC2=O [Compound 1427]

cAMP production activity (%) (human PTH1 receptor; [3]): 67%
Molecule: Cc1cc2ccc1CCS(=O)(=O)N1CCC3(CC1)N=C(NC3=O)c1cc(cc(C(F)(F)F)c1)OCC/C=C/COCCN(CCO)C2=O [Compound 1428]

cAMP production activity (%) (human PTH1 receptor; [3]): 8.9%
Molecule: Cc1cc2ccc1CCS(=O)(=O)N1CCC3(CC1)N=C(NC3=O)c1cc(cc(C(F)(F)F)c1)OCCCCCOCCN(CCO)C2=O [Compound 1429]

cAMP production activity (%) (human PTH1 receptor; [3]): 13%
Molecule: Cc1cc2ccc1CCS(=O)(=O)N1CCC3(CC1)N=C(NC3=O)c1cc(cc(C(F)(F)F)c1)OCCC(O)C(O)CCCN(C)C2=O (centres unmarked) [Compound 1430]

cAMP production activity (%) (human PTH1 receptor; [3]): 15%
Molecule: Cc1cc2ccc1CCS(=O)(=O)N1CCC3(CC1)N=C(NC3=O)c1ccc(C(F)(F)F)c(c1)OCCCC=COCCN(C)C2=O [Compound 1431]

cAMP production activity (%) (human PTH1 receptor; [3]): 18%
Molecule: Cc1cc2ccc1CCS(=O)(=O)N1CCC3(CC1)N=C(NC3=O)c1ccc(C(F)(F)F)c(c1)OCCCCCOCCN(C)C2=O [Compound 1432]

cAMP production activity (%) (human PTH1 receptor; [3]): 54%
Molecule: CCCCc1ccc2cc1OCCCCCOCCN(C)C(=O)c1ccc(c(C)c1)CCS(=O)(=O)N1CCC3(CC1)N=C2NC3=O [Compound 1434]

cAMP production activity (%) (human PTH1 receptor; [3]): 54%
Molecule: Cc1cc2ccc1CCS(=O)(=O)N1CCC3(CC1)N=C(NC3=O)c1cc(cc(C(F)(F)F)c1)OCCC/C=C/COCCN(C)C2=O [Compound 1436]

cAMP production activity (%) (human PTH1 receptor; [3]): 57%
Molecule: Cc1cc2ccc1CCS(=O)(=O)N1CCC3(CC1)N=C(NC3=O)c1cc(cc(C(F)(F)F)c1)OCCCCCCOCCN(C)C2=O [Compound 1437]

cAMP production activity (%) (human PTH1 receptor; [3]): 40%
Molecule: Cc1cc2ccc1CCS(=O)(=O)N1CCC3(CC1)N=C(NC3=O)c1cc(cc(C(F)(F)F)c1)OCCOCCOCCN(C)C2=O [Compound 1438]

cAMP production activity (%) (human PTH1 receptor; [3]): 18%
Molecule: Cc1cc2ccc1CCS(=O)(=O)N1CCC3(CC1)N=C(NC3=O)c1cc(cc(C(F)(F)F)c1)OCC[C@H](O)[C@H](O)COCCN(C)C2=O [Compound 1439]

cAMP production activity (%) (human PTH1 receptor; [3]): 10%
Molecule: Cc1cc2ccc1CCS(=O)(=O)N1CCC3(CC1)N=C(NC3=O)c1cc(cc(C(F)(F)F)c1)OCCOCCNC(=O)CN(C)C2=O [Compound 1440]

Molecule: Cc1cc2ccc1CCS(=O)(=O)N1CCC3(CC1)N=C(NC3=O)c1cc(cc(C(F)(F)F)c1)OCC(F)(F)C(F)(F)C(F)(F)COCCN(C)C2=O [Compound 1441]
cAMP production activity (%) (human PTH1 receptor; 0.1 µM): 5.0%

cAMP production activity (%) (human PTH1 receptor; [3]): 9.3%
Molecule: Cc1cc2ccc1CCS(=O)(=O)N1CCC3(CC1)N=C(NC3=O)c1cc(cc(C(F)(F)F)c1)OCCc1cn(nn1)CCCN(C)C2=O [Compound 1442]

cAMP production activity (%) (human PTH1 receptor; [3]): 61%
Molecule: C=CCCCCCCCC(=O)N(C)c1cc(C)c(CCS(=O)(=O)N2CCC3(CC2)N=C(CCCCC=C)NC3=O)c(C)c1 [Compound 1443, dec-9-enoic acid {4-[2-(2-hex-5-enyl-4-oxo-1,3,8-triaza-spiro[4.5]dec-1-ene-8-sulfonyl)-ethyl]-3,5-dimethyl-phenyl}-methyl-amide]

cAMP production activity (%) (human PTH1 receptor; [3]): 12%
Molecule: Cc1cc2cc(C)c1CCS(=O)(=O)N1CCC3(CC1)N=C(CCCC/C=C/CCCCCCCC(=O)N2C)NC3=O [Compound 1444]

cAMP production activity (%) (human PTH1 receptor; [3]): 62%
Molecule: Cc1cc2cc(C)c1CCS(=O)(=O)N1CCC3(CC1)N=C(CCCCCCCCCCCCCC(=O)N2C)NC3=O [Compound 1445]

cAMP production activity (%) (human PTH1 receptor; [3]): 88%
Molecule: C=CCCCCC(=O)N(C)c1cc(C)c(CCS(=O)(=O)N2CCC3(CC2)N=C(CCCCC=C)NC3=O)c(C)c1 [Compound 1446, Hept-6-enoic acid {4-[2-(2-hex-5-enyl-4-oxo-1,3,8-triaza-spiro[4.5]dec-1-ene-8-sulfonyl)-ethyl]-3,5-dimethyl-phenyl}-methyl-amide]

cAMP production activity (%) (human PTH1 receptor; [3]): 15%
Molecule: Cc1cc2cc(C)c1CCS(=O)(=O)N1CCC3(CC1)N=C(CCCC/C=C/CCCCC(=O)N2C)NC3=O [Compound 1447]

cAMP production activity (%) (human PTH1 receptor; [3]): 9.4%
Molecule: Cc1cc2cc(C)c1CCS(=O)(=O)N1CCC3(CC1)N=C(CCCCCCCCCCC(=O)N2C)NC3=O [Compound 1448]

cAMP production activity (%) (human PTH1 receptor; [3]): 18%
Molecule: Cc1cc2ccc1CCS(=O)(=O)N1CCC3(CC1)N=C(NC3=O)c1cc(cc(C(F)(F)F)c1)OCCCCCNC(=O)CN(C)C2=O [Compound 1449]

Molecule: CC[C@H](C)[C@H](NC(=O)[C@H](CCC(=O)O)NC(=O)[C@H](CO)NC(=O)[C@@H](NC(=O)[C@@H](N)CO)C(C)C)C(=O)N[C@@H](CCC(N)=O)C(=O)N[C@@H](CC(C)C)C(=O)N[C@@H](CCSC)C(=O)N[C@@H](Cc1cnc[nH]1)C(=O)N[C@@H](CC(N)=O)C(=O)N[C@@H](CC(C)C)C(=O)NCC(=O)N[C@@H](CCCCN)C(=O)N[C@@H](Cc1cnc[nH]1)C(=O)N[C@@H](CC(C)C)C(=O)N[C@@H](CC(N)=O)C(=O)N[C@@H](CO)C(=O)N[C@@H](CCSC)C(=O)N[C@@H](CCC(=O)O)C(=O)N[C@@H](CCCN=C(N)N)C(=O)N[C@H](C(=O)N[C@@H](CCC(=O)O)C(=O)N[C@@H](Cc1c[nH]c2ccccc12)C(=O)N[C@@H](CC(C)C)C(=O)N[C@@H](CCCN=C(N)N)C(=O)N[C@@H](CCCCN)C(=O)N[C@@H](CCCCN)C(=O)N[C@@H](CC(C)C)C(=O)N[C@@H](CCC(N)=O)C(=O)N[C@@H](CC(=O)O)C(=O)N[C@H](C(=O)N[C@@H](Cc1cnc[nH]1)C(=O)N[C@@H](CC(N)=O)C(=O)N[C@@H](Cc1ccccc1)C(=O)O)C(C)C)C(C)C [human PTH(1-34), teriparatide]
increase of the spine bone mineral density (BMD) ([1]; in one year): 8% | decrease of the risk of nonvertebral fracture ([2]; in two years): 55% | decrease of the risk of vertebral fracture ([2]; in two years): 65%

B1: human PTH(1-84): "Native human parathyroid hormone is a polypeptide consisting of 84 amino acids" (protein, UniProt P01270 32-115, looked up)
Parathyroid hormone: SVSEIQLMHNLGKHLNSMERVEWLRKKLQDVHNFVALGAPLAPRDAGSQRPRKKEDNVLVESHEKSLGEADKADVNVLTKAKSQ
modifications: Parathyroid hormone
increase of the spine bone mineral density (BMD) ([1]; in 18 months): 6.9% | decrease of the risk of vertebral fracture ([2]; 18-month study): 58%
